Source: PubChem BioAssay (NCI)
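These data come from cells grown in 96-well plates and exposed to compound for 48 hours at five concentrations. TGI marks complete inhibition of growth.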

Key:
Assay in all cases: DTP human tumour cell line panel, 48 h
[1] = tested on: UACC-62 melanoma
[2] = tested on: SK-MEL-2 melanoma
[3] = tested on: UACC-257 melanoma
[4] = tested on: KM12 colon
[5] = tested on: MOLT-4 leukemia
[6] = tested on: SR leukemia
[7] = tested on: MALME-3M melanoma
[8] = tested on: DLD-1 colon
[9] = tested on: EKVX NSCLC
[10] = tested on: DMS 273 small cell lung
[11] = tested on: SF-295 CNS
[12] = tested on: SF-268 CNS
[13] = tested on: UO-31 renal
[14] = tested on: SN12C renal
[15] = tested on: SW-620 colon
[16] = tested on: RXF-631 renal
[17] = tested on: IGROV1 ovarian
[18] = tested on: M19-MEL melanoma
[19] = tested on: SNB-19 CNS
[20] = tested on: HL-60(TB) leukemia
[21] = tested on: TK-10 renal
[22] = tested on: HT29 colon
[23] = tested on: ACHN renal
[24] = tested on: HOP-62 NSCLC
[25] = tested on: OVCAR-8 ovarian
[26] = tested on: OVCAR-3 ovarian
[27] = tested on: OVCAR-5 ovarian
[28] = tested on: SK-OV-3 ovarian
[29] = tested on: A549 NSCLC
[30] = tested on: CCRF-CEM leukemia
[31] = tested on: COLO 205 colon
[32] = tested on: M14 melanoma
[33] = tested on: OVCAR-4 ovarian
[34] = tested on: NCI-H226 lung
[35] = tested on: HCC-2998 colon
[36] = tested on: NCI-H522 lung
[37] = tested on: SNB-75 CNS
[38] = tested on: U251 CNS
[39] = tested on: SK-MEL-28 melanoma
[40] = tested on: NCI-H23 lung
[41] = tested on: RPMI-8226 leukemia
[42] = tested on: KM20L2 colon
[43] = tested on: 786-0 renal
[44] = tested on: HCT-116 colon
[45] = tested on: DMS 114 small cell lung
[46] = tested on: HCT-15 colon
[47] = tested on: K-562 leukemia
[48] = tested on: LXFL 529 NSCLC
[49] = tested on: A498 renal
[50] = tested on: RXF 393 renal
[51] = tested on: SNB-78 CNS
[52] = tested on: SF-539 CNS
[53] = tested on: NCI-H460 lung
[54] = tested on: XF 498 CNS
[55] = tested on: HOP-92 NSCLC
[56] = tested on: LOX IMVI melanoma
[57] = tested on: SK-MEL-5 melanoma
[58] = tested on: CAKI-1 renal

SMILES: O=C(CC1(O)C(=O)Nc2ccc([N+](=O)[O-])cc21)c1ccc2ccccc2c1 (stereo not given)
- TGI [1]: > 100 µM
- TGI [2]: > 100 µM
- TGI [3]: > 100 µM
- TGI [4]: > 100 µM
- TGI [5]: > 100 µM
- TGI [6]: > 100 µM
- TGI [7]: > 100 µM
- TGI [8]: > 100 µM
- TGI [9]: > 100 µM
- TGI [10]: > 100 µM
- TGI [11]: > 100 µM
- TGI [12]: > 100 µM
- TGI [13]: > 100 µM
- TGI [14]: > 100 µM
- TGI [15]: > 100 µM
- TGI [16]: > 100 µM
- TGI [17]: > 100 µM
- TGI [18]: > 100 µM
- TGI [19]: > 100 µM
- TGI [20]: > 100 µM
- TGI [21]: > 100 µM
- TGI [22]: > 100 µM
- TGI [23]: > 100 µM
- TGI [24]: > 100 µM
- TGI [25]: > 100 µM
- TGI [26]: > 100 µM
- TGI [27]: > 100 µM
- TGI [28]: > 100 µM
- TGI [29]: > 100 µM
- TGI [30]: > 100 µM
- TGI [31]: > 100 µM
- TGI [32]: > 100 µM
- TGI [33]: > 100 µM
- TGI [34]: > 100 µM
- TGI [35]: > 100 µM
- TGI [36]: > 100 µM
- TGI [37]: > 100 µM
- TGI [38]: > 100 µM
- TGI [39]: > 100 µM
- TGI [40]: > 100 µM
- TGI [41]: > 100 µM
- TGI [42]: > 100 µM
- TGI [43]: > 100 µM
- TGI [44]: > 100 µM
- TGI [45]: > 100 µM
- TGI [46]: > 100 µM
- TGI [47]: > 100 µM
- TGI [48]: > 100 µM
- TGI [49]: > 100 µM
- TGI [50]: > 100 µM
- TGI [51]: > 100 µM
- TGI [52]: > 100 µM
- TGI [53]: > 100 µM

SMILES: COc1cc([C@@H]2c3cc4c(cc3[C@@H](NC(=O)c3cccc(N)c3)C3COC(=O)[C@@H]32)OCO4)cc(OC)c1O (stereo not given in full)
- TGI [1]: 7.94 µM
- TGI [2]: 10.1 µM
- TGI [3]: > 100 µM
- TGI [4]: 15 µM
- TGI [5]: 2.33 µM
- TGI [6]: 0.321 µM
- TGI [54]: 25 µM
- TGI [7]: 8.87 µM
- TGI [8]: > 67.2 µM
- TGI [9]: 15.6 µM
- TGI [10]: 12.1 µM
- TGI [11]: 5.13 µM
- TGI [12]: 13.9 µM
- TGI [13]: 26.1 µM
- TGI [14]: 3.78 µM
- TGI [55]: 15.9 µM
- TGI [15]: 35 µM
- TGI [16]: 18.5 µM
- TGI [17]: > 41.6 µM
- TGI [18]: > 100 µM
- TGI [19]: 31.6 µM
- TGI [20]: 2.11 µM
- TGI [21]: 18.4 µM
- TGI [22]: 21.3 µM
- TGI [23]: 2.4 µM
- TGI [56]: 12.7 µM
- TGI [24]: 0.0964 µM
- TGI [25]: 14.8 µM
- TGI [26]: 30.2 µM
- TGI [27]: 12.8 µM
- TGI [28]: > 22.9 µM
- TGI [29]: 2.55 µM
- TGI [30]: > 33 µM
- TGI [57]: 6.16 µM
- TGI [31]: > 100 µM
- TGI [32]: > 20.4 µM
- TGI [33]: > 66.9 µM
- TGI [58]: 6.18 µM
- TGI [34]: 1.62 µM
- TGI [35]: 7.23 µM
- TGI [37]: 11.6 µM
- TGI [38]: 4.51 µM
- TGI [39]: > 88.5 µM
- TGI [40]: 2.22 µM
- TGI [41]: 18.1 µM
- TGI [42]: 36 µM
- TGI [43]: 2.3 µM
- TGI [44]: > 42.4 µM
- TGI [46]: 19.7 µM
- TGI [47]: > 49.3 µM
- TGI [48]: > 100 µM
- TGI [49]: 8.08 µM
- TGI [50]: 23.5 µM
- TGI [51]: > 84.4 µM
- TGI [52]: 1.53 µM
- TGI [53]: 1.97 µM

SMILES: Cc1cc(C)nc(NS(=O)(=O)c2ccc(NC(=O)c3cccc4c(Nc5ccc(S(=O)(=O)N=C(N)N)cc5)c5ccc(Cl)cc5nc34)cc2)n1
- TGI [1]: > 100 µM
- TGI [3]: 59.9 µM
- TGI [4]: > 100 µM
- TGI [5]: 60.8 µM
- TGI [6]: 80.5 µM
- TGI [54]: > 100 µM
- TGI [7]: > 100 µM
- TGI [8]: 43.2 µM
- TGI [9]: > 100 µM
- TGI [11]: 53 µM
- TGI [12]: > 100 µM
- TGI [13]: > 100 µM
- TGI [14]: > 100 µM
- TGI [16]: > 100 µM
- TGI [18]: > 100 µM
- TGI [19]: 53.3 µM
- TGI [21]: > 100 µM
- TGI [22]: > 100 µM
- TGI [23]: > 100 µM
- TGI [56]: 43.3 µM
- TGI [24]: > 100 µM
- TGI [25]: > 100 µM
- TGI [26]: 52.2 µM
- TGI [27]: > 100 µM
- TGI [28]: > 100 µM
- TGI [30]: > 100 µM
- TGI [32]: > 100 µM
- TGI [35]: 43.5 µM
- TGI [36]: 39.8 µM
- TGI [37]: > 100 µM
- TGI [38]: 31.4 µM
- TGI [39]: > 100 µM
- TGI [40]: > 100 µM
- TGI [41]: 63 µM
- TGI [42]: > 100 µM
- TGI [43]: 32.2 µM
- TGI [44]: 35.4 µM
- TGI [45]: > 100 µM
- TGI [46]: > 100 µM
- TGI [47]: > 100 µM
- TGI [48]: > 100 µM
- TGI [49]: > 100 µM
- TGI [50]: 36.5 µM
- TGI [51]: > 100 µM
- TGI [52]: 73.7 µM
- TGI [53]: > 100 µM
